Reference: publication PMC10028969 (bioRxiv, 2023)

Legend:
T. b. brucei Lister 427 [1] = assay: SYBR Green viability assay with T. brucei; assay type: cell-based; conditions: Trypanosoma brucei, 72 h, read-out: T. b. brucei Lister 427 EC50 (nM) ± SD
[2] = HEK-293 counter-screen assay; assay type: cell-based; conditions: human, HEK-293 cells
T. b. brucei Lister 427 [3] = assay: Time-kill assays; assay type: cell-based; conditions: Trypanosoma brucei, 12 h, read-out: parasite viability
T. b. brucei Lister 427 [4] = assay: Mouse model of T. brucei infection; assay type: in vivo, Trypanosoma brucei brucei

For N=C(N)c1ccc(OCCCCCOc2ccc(C(=N)N)cc2)cc1 [Pentamidine, pentamidine], the EC50 (T. b. brucei Lister 427 [1]) was 69.6 ± 35.5 nM, the CC50 at 48 h [2] was > 4000 nM and the viability at 4 µM (T. b. brucei Lister 427 [3]) was 52.8%. For the same molecule, the mouse survival (T. b. brucei Lister 427 [4]; 4 mg/kg i.p. on day 2, end of the study, without parasite recrudescence) was ≥ 15 day post-infection and the “parasitemia within 24 h of administration” value (T. b. brucei Lister 427 [4]; single i.p. dose 4 mg/kg on day 2 post-infection, BALB/c female mice) was < 2.5 × 10^5 parasites/ml.
